# Key:
# [1] = tested on: male Sprague-Dawley rats; assay: In vivo acute toxicity; set-up: species or system rat
# Procedure: Compound 1 (aq., 12.5 mM) was injected intravenously into 4 male rats (Sprague Dawley Crl:SD, 315-340 g) at a dosage of 0.02 mmol/kg following anaesthesia with 5% isoflurane. […] Body weight measurements and hematology were performed on days −1, 7 and 14. Compound 6 (aq., 6.25 mM) was injected intravenously into 8 male rats (Sprague Dawley Crl:SD, 327-365 g) at a dosage of 0.01 mmol/kg following anaesthesia with 5% isoflurane. […] Body weight measurements and hematology were performed on days −1, 1 and 8. Following euthanasia, the heart, lungs, liver, kidneys, spleen, thyroid and pituitary glands were grossly examined during necropsy, and samples of the brain, heart (compound 1 only), lungs, liver, kidneys, spleen and thymus (compound 1 only) were microscopically evaluated during histopathological examination.
# The acute toxicities of 1 and 6 were studied in 8 week old male Sprague-Dawley rats. The toxicity of 1 was studied over a period of 14 days, in four rats; while the toxicity of 6 was studied over a period of 8 days, in 8 rats. Compound 1 was injected intravenously at a dosage of 0.02 mmol/kg (c=12.5 mM), while 6 was injected at a dosage of 0.01 mmol/kg (c=6.25 mM). These dosages were chosen because the dosage for the only Mn^II-based compound approved in North America, Teslascan, was 0.005 mmol/kg; and the inventors were anticipating a […] degree of toxicity.
# [2] = tested on: male rats (Sprague Dawley Crl:SD); assay: In vivo MRI imaging of 1, predominantly T1-weighted RARE fast-spin-echo scans; set-up: species or system rat; conditions: 0.02 mmol/kg iv; for MRI signal intensity, bladder: baseline (−10 min) 414.3; for MRI signal intensity, skeletal muscle: baseline (−10 min) 432.1; for MRI signal intensity, renal pelvis: baseline (−10 min) 465.7; for MRI signal intensity, renal medulla: baseline (−10 min) 480.8; for MRI signal intensity, liver: baseline (−10 min) 498.6; for MRI signal intensity, renal cortex: baseline (−10 min) 579.1
# Procedure: Compound 1 (aq., 12.5 mM) was injected intravenously into 2 male rats (Sprague Dawley Crl:SD, 312-338 g) at a dosage of 0.02 mmol/kg following anaesthesia with 5% isoflurane. Compound 2 (aq., 6.25 mM) was injected intravenously into 1 male rat (Sprague Dawley Crl:SD, 349 g) at a dosage of 0.01 mmol/kg following anaesthesia with 5% isoflurane. Compound 6 (aq., 6.25 mM) was injected intravenously into 1 male rat (Sprague Dawley Crl:SD, 341 g) at a dosage of 0.01 mmol/kg following anaesthesia with 5% isoflurane. Anesthesia was maintained at 2-2.5% isoflurane through a nose cone for the duration of the scans. Fast-spin-echo images were collected for 45 mins. immediately post-injection. For compound 1, the DT1-weighted RARE (Rapid Acquisition Relaxation Enhancement) scans were acquired with an echo time of 10 ms, and a repetition time=respiratory cycle duration (˜1100 ms). Both T1- and T2-weighted scans were collected on compounds 2 and 6.
# The in vivo contrast potential of compounds 1, 2 and 6 were studied via the collection of fast-spin-echo images for 30-45 minutes immediately following injection of an aqueous solution of each complex. The dosage chosen for 1 was 0.02 mmol/kg (c=[…]) while the dosage chosen for 2 and 6 was 0.01 mmol/kg (c=6.25 mM). Predominantly T1-weighted scans with some T2-weighting were performed on two rats injected with 1.
# [3] = percentage of the initial intensity, first 45 min
smiles,measurement,setting,value
"CC1=NCCNCCNCCN=C(C)c2cccc1n2.O.O.[Cl-].[Cl-].[Mn+2] [Compound 1, [MnL1Cl2].2H2O]",acute toxicity (overall),"[1]; 0.02 mmol/kg iv, 4 rats, 14 days",minimally- to non-acutely toxic
same,toxicity (summary of the in vivo studies),[1]; at the studied dosages,negligible toxicity
same,excretion (summary),[2],rapid excretion
same,time to appearance in the bladder,[2],≤ 5 min
same,"MRI signal intensity, bladder",[2]; 2 min after injection,454.3 arbitrary units of voxel intensity
same,"MRI signal intensity, skeletal muscle",[2]; 2 min after injection,358.5 arbitrary units of voxel intensity
same,"MRI signal intensity, renal pelvis",[2]; 2 min after injection,881.1 arbitrary units of voxel intensity
same,"MRI signal intensity, renal medulla",[2]; 2 min after injection,608.9 arbitrary units of voxel intensity
same,"MRI signal intensity, liver",[2]; 2 min after injection,458.8 arbitrary units of voxel intensity
same,"MRI signal intensity, renal cortex",[2]; 2 min after injection,635.2 arbitrary units of voxel intensity
same,"MRI signal intensity, bladder",[2]; 10 min after injection,1093.1 arbitrary units of voxel intensity
same,"MRI signal intensity, skeletal muscle",[2]; 10 min after injection,354.3 arbitrary units of voxel intensity
same,"MRI signal intensity, renal pelvis",[2]; 10 min after injection,920.7 arbitrary units of voxel intensity
same,"MRI signal intensity, renal medulla",[2]; 10 min after injection,561.8 arbitrary units of voxel intensity
same,"MRI signal intensity, liver",[2]; 10 min after injection,436.2 arbitrary units of voxel intensity
same,"MRI signal intensity, renal cortex",[2]; 10 min after injection,683.4 arbitrary units of voxel intensity
same,"MRI signal intensity, bladder",[2]; 15 min after injection,1147.9 arbitrary units of voxel intensity
same,"MRI signal intensity, skeletal muscle",[2]; 15 min after injection,346.5 arbitrary units of voxel intensity
same,"MRI signal intensity, renal pelvis",[2]; 15 min after injection,806.3 arbitrary units of voxel intensity
same,"MRI signal intensity, renal medulla",[2]; 15 min after injection,524.4 arbitrary units of voxel intensity
same,"MRI signal intensity, liver",[2]; 15 min after injection,410.2 arbitrary units of voxel intensity
same,"MRI signal intensity, renal cortex",[2]; 15 min after injection,660.3 arbitrary units of voxel intensity
same,"MRI signal intensity, bladder",[2]; 20 min after injection,1046.4 arbitrary units of voxel intensity
same,"MRI signal intensity, skeletal muscle",[2]; 20 min after injection,337.5 arbitrary units of voxel intensity
same,"MRI signal intensity, renal pelvis",[2]; 20 min after injection,733.9 arbitrary units of voxel intensity
same,"MRI signal intensity, renal medulla",[2]; 20 min after injection,502.9 arbitrary units of voxel intensity
same,"MRI signal intensity, liver",[2]; 20 min after injection,424.5 arbitrary units of voxel intensity
same,"MRI signal intensity, renal cortex",[2]; 20 min after injection,717.0 arbitrary units of voxel intensity
same,"MRI signal intensity, bladder",[2]; 30 min after injection,970.1 arbitrary units of voxel intensity
same,"MRI signal intensity, skeletal muscle",[2]; 30 min after injection,330.6 arbitrary units of voxel intensity
same,"MRI signal intensity, renal pelvis",[2]; 30 min after injection,704.7 arbitrary units of voxel intensity
same,"MRI signal intensity, renal medulla",[2]; 30 min after injection,512.6 arbitrary units of voxel intensity
same,"MRI signal intensity, liver",[2]; 30 min after injection,398.0 arbitrary units of voxel intensity
same,"MRI signal intensity, renal cortex",[2]; 30 min after injection,775.4 arbitrary units of voxel intensity
same,"MRI signal intensity, bladder",[2]; 45 min after injection,1030.1 arbitrary units of voxel intensity
same,"MRI signal intensity, skeletal muscle",[2]; 45 min after injection,351.0 arbitrary units of voxel intensity
same,"MRI signal intensity, renal pelvis",[2]; 45 min after injection,666.1 arbitrary units of voxel intensity
same,"MRI signal intensity, renal medulla",[2]; 45 min after injection,520.6 arbitrary units of voxel intensity
same,"MRI signal intensity, liver",[2]; 45 min after injection,369.8 arbitrary units of voxel intensity
same,"MRI signal intensity, renal cortex",[2]; 45 min after injection,804.1 arbitrary units of voxel intensity
same,liver signal,[2]; first 45 minutes,gradual liver hypoenhancement
same,renal cortical signal,[2]; first 45 minutes,slow increase in the renal cortical signal
same,"Max. intensity change, bladder",[2]; [3],177%
same,"Max. intensity change, liver",[2]; [3],−26%
same,"Max. intensity change, renal cortex",[2]; [3],39%
same,"Max. intensity change, renal medulla",[2]; [3],27%
same,"Max. intensity change, renal pelvis",[2]; [3],98%
same,"Max. intensity change, skeletal muscle",[2]; [3],−23%
same,retention in tissues or organs,[2]; scans 3 hours post-injection,no evidence of compound 1 being retained by any tissue or organ
